Legend:
[1] = test system: KG1 leukemia cell line harboring FGFR1OP-FGFR1 fusion; assay: Cell proliferation assay in KG1 cells (SRB or MTT, 72 h); assay type: cell-based; details: Homo sapiens, KG-1, mean ± SD from two separate experiments, read-out: KG1 IC50 (antiproliferation activity)
Procedure: Cell proliferation was examined in a FGFR1-translocated KG1 leukemia cell line harboring FGFR1OP-FGFR1 fusion. The original KG1 cell line was purchased from ATCC (CRL-8031), and cultured according the ATCC standard protocol. Cells were seeded in 96-well tissue culture plates. On the next day, the cells were exposed to various concentrations of compounds and further cultured for 72 h. Cell proliferation was then determined using sulforhodamine B (SRB, from Sigma-Aldrich, St Louis, MO, USA) or the thiazolyl blue tetrazolium bromide (MTT, from Sigma-Aldrich, St Louis, MO, USA) assay. The IC50 values were calculated by concentration- response curve fitting using the four-parameter method.

FGFR1 = molecular target: T1, FGFR1 (Homo sapiens, UniProt P11362); assay: ELISA kinase assay, FGFR1 enzymatic activity; assay type: biochemical; details: for inhibition at 0.01 µM: 0.01 μM (10 nM); for inhibition at 0.01 µM / inhibition at 0.1 µM / inhibition at 1 µM: mean of two separate experiments; for IC50: mean ± SD from two separate experiments
T1 construct: purchased Millipore
T1 sequence (P11362 22-822): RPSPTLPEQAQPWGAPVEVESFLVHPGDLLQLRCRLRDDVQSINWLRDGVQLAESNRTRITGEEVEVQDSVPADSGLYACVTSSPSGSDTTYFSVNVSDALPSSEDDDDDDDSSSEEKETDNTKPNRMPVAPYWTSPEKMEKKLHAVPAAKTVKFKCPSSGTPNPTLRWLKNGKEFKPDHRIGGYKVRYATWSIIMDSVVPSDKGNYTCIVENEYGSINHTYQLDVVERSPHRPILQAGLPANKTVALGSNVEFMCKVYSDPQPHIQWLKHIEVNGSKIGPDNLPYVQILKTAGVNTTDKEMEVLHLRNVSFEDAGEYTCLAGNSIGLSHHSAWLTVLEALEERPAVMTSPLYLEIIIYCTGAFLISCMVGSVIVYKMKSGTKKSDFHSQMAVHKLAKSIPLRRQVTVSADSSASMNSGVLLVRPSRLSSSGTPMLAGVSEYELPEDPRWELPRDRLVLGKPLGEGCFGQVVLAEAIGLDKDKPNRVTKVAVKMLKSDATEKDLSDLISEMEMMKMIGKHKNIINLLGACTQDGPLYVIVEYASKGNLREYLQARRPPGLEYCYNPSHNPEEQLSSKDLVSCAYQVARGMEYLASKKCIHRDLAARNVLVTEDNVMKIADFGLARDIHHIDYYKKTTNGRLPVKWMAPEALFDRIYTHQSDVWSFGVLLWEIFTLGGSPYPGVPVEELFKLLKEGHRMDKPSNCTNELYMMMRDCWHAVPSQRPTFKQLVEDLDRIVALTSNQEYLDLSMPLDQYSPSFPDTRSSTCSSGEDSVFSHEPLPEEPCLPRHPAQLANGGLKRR
Procedure: The effects of compounds on the activities of indicated (FGFR1 and c-Met) kinases were determined using enzyme-linked immunosorbent assays (ELISAs) with purified recombinant proteins. Briefly, 20 μg/mL poly (Glu, Tyr)4:1 (Sigma, St. Louis, MO, USA) was precoated in 96-well plates as a substrate. A 50-μL aliquot of 10 μmol/L ATP solution diluted in kinase reaction buffer (50 mmol/L HEPES (pH 7.4), 50 mmol/L MgCl2, 0.5 mmol/L MnCl2, 0.2 mmol/L Na3VO4, and 1 mmol/L DTT) was added to each well; 1 μL of various concentrations of compounds diluted in 1% DMSO (v/v) (Sigma) were then added to each reaction well. DMSO (1%, v/v) was used as the negative control. The kinase reaction was initiated by the addition of purified tyrosine kinase proteins FGFR1 (Millipore, Darmstadt, Germany) or c-Met (Millipore) diluted in 49 μL of kinase reaction buffer. After incubation for 60 min at 37 °C, the plate was washed three times with phosphate-buffered saline (PBS) containing 0.1% Tween 20 (T-PBS). Anti-phosphotyrosine (PY99) antibody (Sanra Cruz, Dallas, TX, USA) (100 μL; 1:500, diluted in 5 mg/mL bovine serum albumin (BSA) T-PBS) was then added. After a 30-min incubation at 37 °C, the plate was washed three times, and 100 μL of horseradish peroxidase-conjugated goat anti-mouse IgG (Calbiochem, Shanghai, China) (1:2000, diluted in 5 mg/mL BSA T-PBS) was added. The plate was then incubated at 37 °C for 30 min, and washed three times. A 100-μL aliquot of a solution containing 0.03% H2O2 and 2 mg/mL o-phenylenediamine in 0.1 mol/L citrate buffer (pH 5.5) was added. The reaction was terminated by the addition of 50 μL of 2 mol/L H2SO4 as the color changed, and the plate was analyzed using a multi-well spectrophotometer (SpectraMAX 190, Molecular Devices, Palo Alto, CA, USA) at 490 nm. The inhibition rate (%) was calculated using the following equation:IR = [1 − (A490/A490control)] × 100%.(1) where IR, A490, and A490control are the inhibition rate, the absorbance value of the tested compound at 490 nm, and the absorbance value of the negative control compound at 490 nm, respectively. The IC50 values were calculated from the inhibition curves in two separate experiments.

Row | SMILES | IC50 [1] | inhibition at 0.01 µM (FGFR1) | inhibition at 0.1 µM (FGFR1) | inhibition at 1 µM (FGFR1) | IC50 (FGFR1)
1 | O=S(=O)(c1c[nH]cn1)n1ccc2ncc(-c3cn[nH]c3)nc21 [Compound 27, 5-((1H-Imidazol-4-yl)sulfonyl)-3-(1H-pyrazol-4-yl)-5H-pyrrolo[2,3-b]pyrazine] | 187 ± 17.2 nM | 27.9% | 71.9% | 90.7% | 15.7 ± 4.8 nM
2 | CCn1cnc(S(=O)(=O)n2ccc3ncc(-c4cn[nH]c4)nc32)c1 [Compound 29, 5-((1-ethyl-1H-imidazol-4-yl)sulfonyl)-3-(1H-pyrazol-4-yl)-5H-pyrrolo[2,3-b]pyrazine] | 17.4 ± 8.7 nM | 53.7% | 79.5% | 94.6% | 3 ± 0.7 nM
3 | Cn1cnc(S(=O)(=O)n2ccc3ncc(-c4cn[nH]c4)nc32)c1 [Compound 28, 5-((1-Methyl-1H-imidazol-4-yl)sulfonyl)-3-(1H-pyrazol-4-yl)-5H-pyrrolo[2,3-b]pyrazine] | 98.5 ± 19.1 nM | 12.5% | 63.2% | 88.8% | 15.4 ± 3 nM

Source: paper PMC6017193, “Structure-Based Discovery of a Series of 5H-Pyrrolo[2,3-b]pyrazine FGFR Kinase Inhibitors” (Molecules : A Journal of Synthetic Chemistry and Natural …, 2018)
